Reference: ChEMBL document CHEMBL6153133, “Discovery of Diphenyl Ether Derivatives as Novel BKCa Channel Activators: Structure-Activity Relationship, Cryo-EM Complex Structures, and In Vivo Animal Studies” (J Med Chem, 2025)
pEC50: −log10 of the molar value. Calls of active or inactive are those of the source. The calls are words filed in the database; no cut-off is given here.

Columns and labels:
[1] = test system: Rattus norvegicus; test: Reversal of urinary incontinence in male spontaneous hypertensive rat model assessed as decrease in urine frequency at 20 to 40 mg/kg, po measured after 3 hrs; assay type: functional, organism-based; details: dose 20-40 mg/kg
[2] = test system: Calcium-activated potassium channel subunit alpha-1 (Homo sapiens), Q12791 [UNDEFINED MUTATION]; test: Activation of hyperactive human BKca channel G803D/N806K mutant transfected in human AD-293 cells assessed as maximum relative fluorescence value at 1 uM preincubated for 15 mins followed by Tl+ stimulus buffer addition and measured after 80 sec by Flexstation3 multimode microplate reader analysis relative to control; assay type: cell-based; details: time 980.0 sec
[3] = test system: Calcium-activated potassium channel subunit alpha-1 (Homo sapiens), Q12791 [UNDEFINED MUTATION]; test: Activation of hyperactive human BKca channel G803D/N806K mutant transfected in human AD-293 cells assessed as maximum relative fluorescence value at 5 uM preincubated for 15 mins followed by Tl+ stimulus buffer addition and measured after 80 sec by Flexstation3 multimode microplate reader analysis relative to control; assay type: cell-based; details: filed as opener, time 980.0 sec
[4] = Drug concentration in male Dunkin Hartley guinea pig brain at 10 mg/kg, po measured after 1 hrs by LC-MS/MS analysis; assay type: ADME, organism-based, Cavia porcellus; details: read-out: Ct
[5] = Cmax in male Dunkin Hartley guinea pig at 10 mg/kg, po by LC-MS/MS analysis; assay type: ADME, organism-based, Cavia porcellus; details: in vivo
[6] = Volume of distribution at steady state in male Dunkin Hartley guinea pig at 10 mg/kg, iv by LC-MS/MS analysis; assay type: ADME, organism-based, Cavia porcellus; details: in vivo, read-out: Vdss
[7] = test system: Cavia porcellus; test: Antitussive activity in citric acid-induced male Dunkin Hartley guinea pig cough model assessed as reduction in cough number at 50 mg/kg, po pretreated with compound for 4 hrs followed by citric acid administration and measured after 10 mins relative to control; assay type: functional; set-up: scale not given: the % may be the effect or the level left; details: time 250 min, 4.167 h
[8] = Drug concentration in male Dunkin Hartley guinea pig lung at 10 mg/kg, po measured after 1 hrs by LC-MS/MS analysis; assay type: ADME, organism-based, Cavia porcellus; details: read-out: Ct
[9] = test system: Cavia porcellus; test: Antitussive activity in citric acid-induced male Dunkin Hartley guinea pig cough model assessed as reduction in cough number at 20 mg/kg, po pretreated with compound for 4 hrs followed by citric acid administration and measured after 10 mins relative to control; assay type: functional; set-up: scale not given: the % may be the effect or the level left; details: time 250 min, 4.167 h
[10] = Aqueous solubility of compound in PBS at >50 mg/ml; assay type: physicochemical; details: buffer
[11] = test system: Rattus norvegicus; test: Reversal of urinary incontinence in male spontaneous hypertensive rat model assessed as decrease in urine volume at 100 mg/kg, po measured after 3 hrs relative to control; assay type: functional; set-up: scale not given: the % may be the effect or the level left
[12] = Ratio of drug concentration in male Dunkin Hartley guinea pig brain to plasma at 10 mg/kg, po measured after 1 hrs by LC-MS/MS analysis; assay type: ADME, organism-based, Cavia porcellus; details: read-out: BPR
[13] = Half-life in male Dunkin Hartley guinea pig at 10 mg/kg, iv by LC-MS/MS analysis; assay type: ADME, organism-based, Cavia porcellus; details: in vivo
[14] = Half-life in male Sprague-Dawley rat at 10 mg/kg, po by LC-MS/MS analysis; assay type: ADME, organism-based; details: in vivo
[15] = test system: Cavia porcellus; test: Antitussive activity in citric acid-induced male Dunkin Hartley guinea pig cough model assessed as reduction in cough number at 8 mg/kg, po pretreated with compound for 4 hrs followed by citric acid administration and measured after 10 mins relative to control; assay type: functional; set-up: scale not given: the % may be the effect or the level left; details: time 250 min, 4.167 h
[16] = Drug concentration in male Dunkin Hartley guinea pig blood at 10 mg/kg, po measured after 1 hrs by LC-MS/MS analysis; assay type: ADME, organism-based, Cavia porcellus; details: read-out: Ct
[17] = Aqueous solubility of compound in pure distilled water at >50 mg/ml; assay type: physicochemical; details: buffer
[18] = Ratio of drug concentration in male Dunkin Hartley guinea pig lung to plasma at 10 mg/kg, po measured after 1 hrs by LC-MS/MS analysis; assay type: ADME, organism-based, Cavia porcellus
[19] = Drug concentration in male Dunkin Hartley guinea pig lung at 10 mg/kg, po measured after 4 hrs by LC-MS/MS analysis; assay type: ADME, organism-based, Cavia porcellus; details: read-out: Ct
[20] = Ratio of drug concentration in male Dunkin Hartley guinea pig brain to plasma at 10 mg/kg, po measured after 4 hrs by LC-MS/MS analysis; assay type: ADME, organism-based, Cavia porcellus; details: read-out: BPR
[21] = Tmax in male Dunkin Hartley guinea pig at 10 mg/kg, po by LC-MS/MS analysis; assay type: ADME, organism-based, Cavia porcellus; details: in vivo
[22] = Toxicity in male spontaneous hypertensive rat model at 100 mg/kg, po; assay type: organism-based; details: in vivo
[23] = Cmax in male Sprague-Dawley rat at 10 mg/kg, po by LC-MS/MS analysis; assay type: ADME, organism-based; details: in vivo
[24] = Drug concentration in male Dunkin Hartley guinea pig blood at 10 mg/kg, po measured after 4 hrs by LC-MS/MS analysis; assay type: ADME, organism-based, Cavia porcellus; details: read-out: Ct
[25] = test system: Cavia porcellus; test: Antitussive activity in citric acid-induced male Dunkin Hartley guinea pig cough model assessed as reduction in cough number pretreated orally with compound for 4 hrs followed by citric acid administration and measured after 10 mins; assay type: functional; details: 4.167 h, route po, time 250 min
[26] = AUClast in male Dunkin Hartley guinea pig at 10 mg/kg, po by LC-MS/MS analysis; assay type: ADME, organism-based, Cavia porcellus; details: in vivo
[27] = Clearance in male Dunkin Hartley guinea pig at 10 mg/kg, iv by LC-MS/MS analysis; assay type: ADME, organism-based, Cavia porcellus; details: in vivo
[28] = Oral bioavailability in male Dunkin Hartley guinea pig at 10 mg/kg by LC-MS/MS analysis; assay type: ADME, organism-based, Cavia porcellus; details: in vivo
[29] = AUClast in male Sprague-Dawley rat at 10 mg/kg, po by LC-MS/MS analysis; assay type: ADME, organism-based; details: in vivo
[30] = Tmax in male Sprague-Dawley rat at 10 mg/kg, po by LC-MS/MS analysis; assay type: ADME, organism-based; details: in vivo
[31] = test system: Rattus norvegicus; test: Reversal of urinary incontinence in male spontaneous hypertensive rat model assessed as decrease in urine frequency at 100 mg/kg, po measured after 3 hrs relative to control; assay type: functional; set-up: scale not given: the % may be the effect or the level left
[32] = Drug concentration in male Dunkin Hartley guinea pig brain at 10 mg/kg, po measured after 4 hrs by LC-MS/MS analysis; assay type: ADME, organism-based, Cavia porcellus; details: read-out: Ct
[33] = Ratio of drug concentration in male Dunkin Hartley guinea pig lung to plasma at 10 mg/kg, po measured after 4 hrs by LC-MS/MS analysis; assay type: ADME, organism-based, Cavia porcellus
[34] = AUClast in male Dunkin Hartley guinea pig at 10 mg/kg, iv by LC-MS/MS analysis; assay type: ADME, organism-based, Cavia porcellus; details: in vivo
[35] = Half-life in male Dunkin Hartley guinea pig at 10 mg/kg, po by LC-MS/MS analysis; assay type: ADME, organism-based, Cavia porcellus; details: in vivo
[36] = target: Calcium-activated potassium channel subunit alpha-1 (Homo sapiens, UniProt Q12791); test: Activation of BKca channel (unknown origin) by patch-clamp method
[37] = Drug metabolism in male Sprague-Dawley rat assessed as glucuronide conjugated metabolite formation at 10 mg/kg, po measured after approximately 4.2 hrs by LC-MS/MS analysis; assay type: ADME, organism-based; details: in vivo
[38] = Metabolic stability in rat liver microsomes assessed as parent compound remaining at 1 uM preincubated for 15 mins followed by UDPGA addition and measured after 60 mins by LC-MS/MS analysis; assay type: ADME, Microsome; details: time 75 min, read-out: Stability
[39] = target: Calcium-activated potassium channel subunit alpha-1 (Homo sapiens, UniProt Q12791, G803D/N806K); test: Activation of hyperactive human BKca channel G803D/N806K mutant transfected in human AD-293 cells incubated for 15 mins by Flexstation3 multimode microplate reader analysis; assay type: cell-based
[40] = Metabolic stability in human liver microsomes assessed as parent compound remaining at 1 uM preincubated for 15 mins followed by UDPGA addition and measured after 60 mins by LC-MS/MS analysis; assay type: ADME, Microsome; details: time 75 min, read-out: Stability
[41] = Permeability of compound at pH 7.4 measured after 4 hrs by GIT-PAMPA assay; assay type: ADME; details: read-out: permeability
[42] = Metabolic stability in rat liver microsomes assessed as parent compound remaining at 1 uM preincubated for 5 mins followed by NADPH addition and measured after 30 mins by LC-MS/MS analysis; assay type: ADME, Microsome; details: read-out: Stability
[43] = Metabolic stability in human liver microsomes assessed as parent compound remaining at 1 uM preincubated for 5 mins followed by NADPH addition and measured after 30 mins by LC-MS/MS analysis; assay type: ADME, Microsome; details: read-out: Stability
[44] = Activation of rat BKca channel extracted from Xenopus laevis Oocytes by patch-clamp electrophysiology recordings; assay type: cell-based; details: Oocyte

Sequence of Calcium-activated potassium channel subunit alpha-1 (Homo sapiens), Q12791 [UNDEFINED MUTATION] (Q12791 whole entry, looked up, stated change not applied): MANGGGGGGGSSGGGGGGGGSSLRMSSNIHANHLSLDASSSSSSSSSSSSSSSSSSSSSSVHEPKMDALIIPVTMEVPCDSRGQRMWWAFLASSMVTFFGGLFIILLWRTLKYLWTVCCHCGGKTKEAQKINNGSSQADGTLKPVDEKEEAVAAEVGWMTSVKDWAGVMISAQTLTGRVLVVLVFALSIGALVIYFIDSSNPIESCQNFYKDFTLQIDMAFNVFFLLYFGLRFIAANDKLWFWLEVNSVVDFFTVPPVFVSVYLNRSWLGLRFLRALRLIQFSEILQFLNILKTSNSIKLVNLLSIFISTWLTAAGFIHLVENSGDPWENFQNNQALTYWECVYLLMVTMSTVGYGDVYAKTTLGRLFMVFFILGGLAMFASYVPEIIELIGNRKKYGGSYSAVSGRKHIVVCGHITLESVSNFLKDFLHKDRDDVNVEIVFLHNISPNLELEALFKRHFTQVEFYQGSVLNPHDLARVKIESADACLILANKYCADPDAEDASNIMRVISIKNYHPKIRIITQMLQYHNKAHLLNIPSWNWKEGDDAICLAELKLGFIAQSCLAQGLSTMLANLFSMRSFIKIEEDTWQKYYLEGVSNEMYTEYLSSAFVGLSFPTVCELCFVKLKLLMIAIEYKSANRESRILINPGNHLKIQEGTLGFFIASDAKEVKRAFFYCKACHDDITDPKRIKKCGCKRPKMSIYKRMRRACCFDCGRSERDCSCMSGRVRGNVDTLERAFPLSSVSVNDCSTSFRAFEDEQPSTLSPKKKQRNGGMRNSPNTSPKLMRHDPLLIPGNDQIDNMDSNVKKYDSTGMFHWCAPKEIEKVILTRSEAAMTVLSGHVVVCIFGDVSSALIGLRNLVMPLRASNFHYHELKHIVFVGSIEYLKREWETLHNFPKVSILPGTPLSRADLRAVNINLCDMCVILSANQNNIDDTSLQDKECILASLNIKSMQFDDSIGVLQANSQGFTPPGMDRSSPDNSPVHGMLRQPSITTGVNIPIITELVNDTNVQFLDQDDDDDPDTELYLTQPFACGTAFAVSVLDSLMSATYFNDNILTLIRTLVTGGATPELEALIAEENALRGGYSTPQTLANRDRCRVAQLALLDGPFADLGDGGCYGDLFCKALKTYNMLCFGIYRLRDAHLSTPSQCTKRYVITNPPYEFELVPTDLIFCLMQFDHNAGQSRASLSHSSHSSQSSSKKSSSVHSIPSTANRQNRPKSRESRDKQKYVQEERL
Sequence of Calcium-activated potassium channel subunit alpha-1 (Homo sapiens, UniProt Q12791, G803D/N806K) (Q12791 whole entry, looked up, stated change not applied): as above
Sequence of Calcium-activated potassium channel subunit alpha-1 (Homo sapiens, UniProt Q12791) (Q12791 whole entry): as the sequence (Q12791 whole entry, looked up, stated change not applied) above

## COc1cc(N)ccc1Oc1c(F)c(F)c(C(F)(F)F)c(F)c1F
[1]
  Activity: inactive
[2]
  Activity: 31.8%
[3]
  Activity: 107%

## Cl.Cl.Oc1cc(NCCCCCN2CCOCC2)ccc1Oc1c(F)c(F)c(C(F)(F)F)c(F)c1F
[4]
  concentration at 1 h: 424 ng/g
[5]
  Cmax: 31.8 ng/mL
[6]
  Vd: 18.1 L/kg
[7]
  Activity: 69.3%
[8]
  concentration at 1 h: 8160 ng/g
[9]
  Activity: 54.4%
[10]
  solubility: soluble
[11]
  Activity: 62.6%
[12]
  Kp at 1 h: 15
[13]
  half-life: 4 h
[14]
  half-life: 7.1 h
[15]
  Activity: 25.4%
[16]
  concentration at 1 h: 28 ng/mL
[17]
  solubility: soluble
[18]
  Kp at 1 h: 291
[19]
  concentration at 4 h: 13500 ng/g
[20]
  Kp at 4 h: 18
[21]
  Tmax: 1.8 h
[22]
  Activity: Non-toxic
[23]
  Cmax: 283 ng/mL
[24]
  concentration at 4 h: 23 ng/mL
[25]
  ED50: 11.8 mg/kg
[26]
  AUC(0-t): 188 ng·h/mL
[27]
  clearance: 93.3 mL/min/kg
[28]
  bioavailability: 10.5%
[29]
  AUC(0-t): 844 ng·h/mL
[30]
  Tmax: 0.4 h
[31]
  Activity: 61.4%
[32]
  concentration at 4 h: 414 ng/g
[33]
  Kp at 4 h: 587
[34]
  AUC(0-t): 1800 ng·h/mL
[35]
  half-life: 4.7 h

## O=c1[nH]c2cc(C(F)(F)F)ccc2n1-c1cc(C(F)(F)F)ccc1O
[36]
  pEC50: 5.00

## Nc1ccc(Oc2c(F)c(F)c(C(F)(F)F)c(F)c2F)c(O)c1
[37]
  Drug metabolism: metabolite_detected
[38]
  remaining at 1 h, 1 µM: 5.8%
[39]
  pEC50: 6.92
[40]
  remaining at 1 h, 1 µM: 4.8%
[41]
  Papp at 4 h: 41.1 ×10⁻⁶ cm/s
[42]
  remaining at 0.5 h, 1 µM: 34.6%
[43]
  remaining at 0.5 h, 1 µM: 97%
[44]
  pEC50: 6.55
